Test results taken from patent publication US20130189255A1, “FUSIONS AND CONJUGATES OF INSULINOTROPIC AGENTS” (GLAXO GROUP LIMITED, priority 2008, published 2013).
“And” between values parts separate entries of the source, which are not always exact repeats. Equal entries are not always repeated.

Experiments:
cynomolgus monkey = experiment: PD in cynomolgus monkey: biscuit consumption; format: in vivo, cynomolgus monkey (Macaca fascicularis)
Description: Protein was extensively QCed (including SDS-PAGE, mass spec, activity assay:GLP-1R-BA, pH check, osmolarity check), filter sterilised and endotoxin removed. Protein with confimed low endotoxin (<0.05 EU/mg protein) was then used for the in vivo study. Six female cynomolgus monkeys (Macaca fascicularis; Charles River Laboratories BRF, Houston, Tex., Primate Products, Miami, Fla. and/or Covance Research Products, Inc., Alice, Tex.) were used in this study. The monkeys were approximately 2 to 9 years old (with a body weight range of approximately 2 to 5 kilograms) at initiation of dosing. The monkeys were housed individually in stainless-steel cages in an environmentally controlled room(s) (64 F to 84 F; 30 to 70% relative humidity) with a 12-hour light/dark cycle. The female monkeys were offered approximately 6 biscuits twice daily of Monkey Diet #5038 (PMI Nutrition International, Richmond, Ind.) and a daily allotment of fresh fruit. […] Dose was at 0.1 mg/Kg. On the days of dosing, the first feeding occurred within approximately 1 hour post dose for each monkey (extended up to 2.5 hours post dose if study-related procedures required animals to be out of their local housing for an extended period of time). The second feeding was no sooner then two hours following the first feeding. For the purpose of environmental enrichment, additional fruit, legume and/or vegetable (e.g., grapes, baby carrots, peanuts) was provided to each monkey at or around the time of viability check or as a method of reward after acclimation or study-related procedures. Filtered tap water (supplied by Aqua Pennsylvania, Inc. and periodically analyzed) was available ad libitum. Plasma samples (approx 2 ml) were collected from the femoral vessel at predose (0 hour) and nominally at 5 minutes (iv group only), 0.5, 4, 8, 24, 48, 96, 144, 192, 288, 336, 504 and 672 hours after dosing. (PK samples from one of the animals in the iv dose group were only collected to 24 h so this animal has been excluded from the PK fitting). Analysis of samples was by mass spectrometry, and fitting of the data was using WinNonLin fitting software. PK parameters were as follows for iv administration (n=2): T1/2 67 h, MRT 46 h, Vz 327 ml/Kg and Cl 3.3 ml/hr/Kg; and for sc administration (n=3): T1/2 68 h, MRT 98 h, Vz 306 ml/Kg and Cl 3.1 ml/hr/Kg. Bioavailability was calculated as 99%. A PK study was conducted in cynomolgus monkey as described above. The principal aim of this study was to determine the pharmacokinetic parameters for DAT0115 in cynomolgus monkey (as described in the previous example), but a secondary aim was to obtain an indication of the efficacy of the DAT0115 compound in the monkeys (without sufficient power in the study for statistical significance). To achieve this secondary aim, biscuit consumption by the monkeys was monitored during the course of the study.

HSA = HSA (Homo sapiens, UniProt P02768); format: binding
Method: The analysis was performed using a streptavidin chip (SA) coated with biotinylated serum albumin. 200-1000 resonance units (RUs) of each serum albumin was immobilised on the chip. Flow cell 1 was uncoated, flow cell 2 was coated with HSA, flow cell 3 was coated with RSA and flow cell 4 was coated with CSA. A range of concentrations of fusion was prepared (in the range 15.6 nM to 2 μM by dilution into BIACORE HBS-EP buffer (0.01M HEPES, pH7.4, 0.15M NaCl, 3 mM EDTA, 0.005% surfactant P20) and flowed across the BIACORE chip.
Affinity (KD) was calculated from the BIACORE traces by fitting on-rate and off-rate curves to traces generated by concentrations of dAb in the region of the KD.

“Exendin 4 (G4S linker)3 DOM7h-14 dAb fusion [DAT0115]” was tested, and the Biscuits consumed daily (cynomolgus monkey; 0.1 mg/Kg (iv), Day 1 (dosing day), individual monkey) was 0 (2×) and 6, the Biscuits consumed daily (cynomolgus monkey; 0.1 mg/Kg (iv), Day 2, individual monkey) was 0 and 3 and 1 and the Biscuits consumed daily (cynomolgus monkey; 0.1 mg/Kg (iv), Day 3, individual monkey) was 0 (2×) and 9. For the same substance, the Biscuits consumed daily (cynomolgus monkey; 0.1 mg/Kg (iv), Day 4, individual monkey) was 0 and 12 and 4, the Biscuits consumed daily (cynomolgus monkey; 0.1 mg/Kg (iv), Day 5, individual monkey) was 1 and 12 and 6 and the Biscuits consumed daily (cynomolgus monkey; 0.1 mg/Kg (iv), Day 6, individual monkey) was 6 and 12 and 10. For the same substance, the Biscuits consumed daily (cynomolgus monkey; 0.1 mg/Kg (iv), Day 7, individual monkey) was 6 and 12 and 11, the Biscuits consumed daily (cynomolgus monkey; 0.1 mg/Kg (iv), Day −1 (pre-dose), individual monkey) was 12 and the Biscuits consumed daily (cynomolgus monkey; 0.1 mg/Kg (iv), Day −2 (pre-dose), individual monkey) was 12. For the same substance, the Biscuits consumed daily (cynomolgus monkey; 0.1 mg/Kg (sc), Day 1 (dosing day), individual monkey) was 5 and 12 and 11, the Biscuits consumed daily (cynomolgus monkey; 0.1 mg/Kg (sc), Day 2, individual monkey) was 0 (2×) and 12 and the Biscuits consumed daily (cynomolgus monkey; 0.1 mg/Kg (sc), Day 3, individual monkey) was 4 and 2 and 11. The Biscuits consumed daily (cynomolgus monkey; 0.1 mg/Kg (sc), Day 4, individual monkey) was 11 and 12 (2×), the Biscuits consumed daily (cynomolgus monkey; 0.1 mg/Kg (sc), Day 5, individual monkey) was 7 and 12 and 8 and the Biscuits consumed daily (cynomolgus monkey; 0.1 mg/Kg (sc), Day 6, individual monkey) was 11 and 12 (2×). For the same substance, the Biscuits consumed daily (cynomolgus monkey; 0.1 mg/Kg (sc), Day 7, individual monkey) was 12, the Biscuits consumed daily (cynomolgus monkey; 0.1 mg/Kg (sc), Day −1 (pre-dose), individual monkey) was 12 and the Biscuits consumed daily (cynomolgus monkey; 0.1 mg/Kg (sc), Day −2 (pre-dose), individual monkey) was 12. For the same substance, the “food consumption in the days following dosing” value (cynomolgus monkey; 0.1 mg/Kg iv or sc, all monkeys, not powered for significance) was “trend towards reduction in food consumption” and the Kd (HSA) was 600 nM.
